What is called IC50 is the concentration at which inhibition is half-maximal.

The target of assay [1] is T1, NK3 receptors (Homo sapiens, UniProt P29371).
T1 construct: expressed in transfected cells
T1 sequence (P29371 1-465): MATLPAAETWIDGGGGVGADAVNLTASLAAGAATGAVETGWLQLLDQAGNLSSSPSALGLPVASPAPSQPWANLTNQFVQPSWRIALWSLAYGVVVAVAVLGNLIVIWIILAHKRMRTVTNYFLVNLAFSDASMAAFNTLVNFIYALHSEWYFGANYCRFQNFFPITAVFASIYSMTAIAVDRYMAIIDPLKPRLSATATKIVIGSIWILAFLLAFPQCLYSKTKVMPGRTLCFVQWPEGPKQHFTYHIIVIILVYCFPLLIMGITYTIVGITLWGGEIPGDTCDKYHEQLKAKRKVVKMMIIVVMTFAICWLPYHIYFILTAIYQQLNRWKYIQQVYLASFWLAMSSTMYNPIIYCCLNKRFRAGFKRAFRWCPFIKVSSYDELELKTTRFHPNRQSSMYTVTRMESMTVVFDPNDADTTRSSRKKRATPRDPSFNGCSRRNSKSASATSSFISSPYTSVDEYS
The experiment in a line: Calcium ion fluidity (FLIPR) in cells with stable expression of NK3 receptors. The format is cell-based. The settings on record: calcium signal, antagonist mode, read-out: NK3R IC50 (nM) FLIPR. The text has this: Determination of the Effect of the Compounds of the Present Invention on Calcium Ion Fluidity in Cells with Stable Expression of NK3 Receptors
Experimental objective: The objective of this test example was to determine the inhibitory effect of the compounds on NK3 receptors.
Experimental Methods: • 1. […] Probenecid and BSA were freshly added on the day of the experiment. The buffers for the experiments included dye buffer, compound dilution buffer and the like. • 2. […] The culture medium was discarded, and 20 μL of dye was added. The cells were incubated at 37° C. in the dark for 60 min, and then the calcium signal was read. • 4. The antagonist was prepared before the experiments. […] The plate was transferred to FLIPR, and 6× concentration of the agonist compound was added at 5 μL/well. The values were read and the data were saved by using FLIPR. The total assay volume was 30 μL, comprising 20 μL/well of dye buffer, 5 μL/well of 5× concentration of the experimental compound, and 5 μL/well of 6× concentration of the agonist compound.
The calcium signal value was read by FLIPR. The output of each sampling time point in the experiment was calculated as the ratio of the signals at wavelengths of 340/510 nm to 380/510 nm. The maximum minus minimum value was calculated from the ratio signal curve. The IC50 value of the compound was calculated by fitting the data of inhibition rate percentage and ten concentrations to the parametric nonlinear logistic equation by using GraphPad prism.

Assay [2] addresses T1, NK3 receptors. The assay is described as follows: Antagonism of IP1 in HEK293 cells with stable expression of NK3. The assay is classed as cell-based. The settings on record: agonist Senktide 3 nM, read-out: NK3R IC50 (nM) IP1. On the procedure: Determination of the Effect of the Compounds of the Present Invention on IP1 in HEK293 Cells with Stable Expression of NK3
The objective of this test example was to determine the antagonism effect of the compounds on the activity of HEK293-NK3 cells.
3. Experimental Methods: • 1. […] HEK293-NK3 cell line was cultured in complete medium and seeded in the coated dishes at 37° C., 5% CO2 until 70%˜90% confluence. • 3. […] The cells were digested and resuspended in 1× Stimulation Buffer (IP-ONE Gq Kit), seeded into the 384-well cell culture plate (which contained the compound to be tested) at 5,000 cells/well/5 μL by using Multidrop Combi. The culture plate was centrifuged at 300 rpm at room temperature for 60 seconds, and then incubated at 37° C., 5% CO2 for 15 minutes. • 5. The cell culture plate was taken out from the CO2 incubator. […] The culture plate was centrifuged at 300 rpm at room temperature for 60 seconds, and then incubated at 37° C., 5% CO2 for 2 hours. • 6. The cell culture plate was taken out from the CO2 incubator. 5 μL of IP1 d2 reagent and then 5 μL of IP1 Tb Cryptate Antibody reagent were added by using Multidrop Combi. The culture plate was centrifuged at room temperature at 300 rpm for 60 seconds, and left to stand at room temperature for 1 hour. • 7. The plate was read by using EnVision Multilabel Reader, and data were collected at the same time.
The fluorescence signal ratio (Ratio) was read and collected by EnVision Multilabel Reader. According to the readings of the Low control (DMSO control) and High control (p)ositive compound) experimental groups, the antagonism percentage data were calculated as {% antagonism=(Ratio sample−Ratio low control)/(Ratio high control−Ratio low control)×100}.

In the case of `C[C@@H]1c2nnc(-c3nc4ccc(Cl)cc4s3)n2CCN1C(=O)c1ccc(F)cc1` [Example 19, (R)-(3-(6-Chlorobenzo[d]thiazol-2-yl)-8-methyl-5,6-dihydro-[1,2,4]triazolo[4,3-a]pyrazin-7(8H)-yl)(4-fluorophenyl)methanone], the figures for the IC50 on NK3 receptors [1] and at NK3 receptors [2] were 10.9 nM and 15.6 nM, respectively.

Consider `C[C@@H]1c2nnc(-c3nc4ccc(Cl)cc4s3)n2CCN1C(=O)c1ccc(Cl)cc1` [Example 20, (R)-(3-(6-Chlorobenzo[d]thiazol-2-yl)-8-methyl-5,6-dihydro-[1,2,4]triazolo[4,3-a]pyrazin-7(8H)-yl)(4-chlorophenyl)methanone], for which the IC50 is 61 nM at NK3 receptors [1] and 27.3 nM on NK3 receptors [2].

With `C[C@@H]1c2nnc(-c3nc4ccc(C#N)cc4s3)n2CCN1C(=O)c1ccc(F)cc1` [Example 21, (R)-2-(7-(4-Fluorobenzoyl)-8-methyl-5,6,7,8-tetrahydro-[1,2,4]triazolo[4,3-a]pyrazin-3-yl)benzo[d]thiazol-6-carbonitrile], the IC50 on NK3 receptors [1] came to 123 nM; on NK3 receptors [2] it was 28.2 nM.

Turning to `Cc1cccc2sc(-c3nnc4n3CCN(C(=O)c3ccc(F)cc3)[C@@H]4C)nc12` [Example 22, (R)-(4-Fluorophenyl)(8-methyl-3-(4-methylbenzo[d]thiazol-2-yl)-5,6-dihydro-[1,2,4]triazolo[4,3-a]pyrazin-7(8H)-yl)methanone], the results for the IC50 on NK3 receptors [1] and at NK3 receptors [2] were 73.3 nM and 57 nM, respectively.

For the compound `Cc1cccc2sc(-c3nnc4n3CCN(C(=O)c3ccc(Cl)cc3)[C@@H]4C)nc12` [Example 23, (R)-(4-Chlorophenyl)(8-methyl-3-(4-methylbenzo[d]thiazol-2-yl)-5,6-dihydro-[1,2,4]triazolo[4,3-a]pyrazin-7(8H)-yl)methanone], the IC50 at NK3 receptors [1] came out at 97.8 nM; on NK3 receptors [2], 43.6 nM.

With `Cc1ccc2nc(-c3nnc4n3CCN(C(=O)c3ccc(F)cc3)[C@@H]4C)sc2c1` [Example 24, (R)-(4-Fluorophenyl)(8-methyl-3-(6-methylbenzo[d]thiazol-2-yl)-5,6-dihydro-[1,2,4]triazolo[4,3-a]pyrazin-7(8H)-yl)methanone], the IC50 was 45.6 nM on NK3 receptors [1] and 49.5 nM on NK3 receptors [2].

For `Cc1ccc2nc(-c3nnc4n3CCN(C(=O)c3ccc(Cl)cc3)[C@@H]4C)sc2c1` [Example 25, (R)-(4-Chlorophenyl)(8-methyl-3-(6-methylbenzo[d]thiazol-2-yl)-5,6-dihydro-[1,2,4]triazolo[4,3-a]pyrazin-7(8H)-yl)methanone], the IC50 was determined as 58.4 nM at NK3 receptors [1] and 47.8 nM at NK3 receptors [2].

For the compound `Cc1ccc2nc(-c3nnc4n3CCN(C(=O)c3ccc(Cl)c(Cl)c3)[C@@H]4C)sc2c1` [Example 26, (R)-(3,4-Dichlorophenyl)(8-methyl-3-(6-methylbenzo[d]thiazol-2-yl)-5,6-dihydro-[1,2,4]triazolo[4,3-a]pyrazin-7(8H)-yl)methanone], the IC50 is 96.7 nM on NK3 receptors [1] and 36.1 nM at NK3 receptors [2].

With `COc1ccc2nc(-c3nnc4n3CCN(C(=O)c3ccc(F)cc3)[C@@H]4C)sc2c1` [Example 29, (R)-(4-Fluorophenyl)(3-(6-methoxybenzo[d]thiazol-2-yl)-8-methyl-5,6-dihydro-[1,2,4]triazolo[4,3-a]pyrazin-7(8H)-yl)methanone], the IC50 was found to be 65.8 nM on NK3 receptors [1] and 29 nM at NK3 receptors [2].

For `COc1ccc2nc(-c3nnc4n3CCN(C(=O)c3ccc(Cl)cc3)[C@@H]4C)sc2c1` [Example 30, (R)-(4-Chlorophenyl)(3-(6-methoxybenzo[d]thiazol-2-yl)-8-methyl-5,6-dihydro-[1,2,4]triazolo[4,3-a]pyrazin-7(8H)-yl)methanone], the IC50 at NK3 receptors [1] turned out to be 47.4 nM; on NK3 receptors [2], 187 nM.

On to `COc1ccc2nc(-c3nnc4n3CCN(C(=O)c3ccc(Cl)c(Cl)c3)[C@@H]4C)sc2c1` [Example 31, (R)-(3,4-Dichlorophenyl)(3-(6-methoxybenzo[d]thiazol-2-yl)-8-methyl-5,6-dihydro-[1,2,4]triazolo[4,3-a]pyrazin-7(8H)-yl)methanone], for which the IC50 at NK3 receptors [1] came out at 86.7 nM; at NK3 receptors [2], 43.2 nM.

In the case of `Cc1cccc2cc(-c3nnc4n3CCN(C(=O)c3ccc(Cl)c(Cl)c3)[C@@H]4C)nn12` [Example 49, (R)-(3,4-Dichlorophenyl)(8-methyl-3-(7-methylpyrazolo[1,5-a]pyridin-2-yl)-5,6-dihydro-[1,2,4]triazolo[4,3-a]pyrazin-7(8H)-yl)methanone], the results for the IC50 on NK3 receptors [1] and at NK3 receptors [2] were 86.7 nM and 135 nM, respectively.

In the case of `[2H]c1c([2H])c(C(=O)N2CCn3c(-c4nc(Cl)ns4)nnc3[C@H]2C)c([2H])c([2H])c1F` [Example 55, (R)-(3-(3-Chloro-1,2,4-thiadiazol-5-yl)-8-methyl-5,6-dihydro-[1,2,4]triazolo[4,3-a]pyrazin-7(8H)-yl)(4-fluorophenyl-2,3,5,6-d4)methanone], the half-maximal inhibitory concentration (IC50) on NK3 receptors [1] was determined as 219 nM; on NK3 receptors [2], 88.3 nM.

Take `C[C@@H]1c2nnc(-c3nc(Cl)ns3)n2CCN1C(=O)c1cc(F)c(F)c(F)c1` [Example 58, (R)-(3-(3-Chloro-1,2,4-thiadiazol-5-yl)-8-methyl-5,6-dihydro-[1,2,4]triazolo[4,3-a]pyrazin-7(8H)-yl)(3,4,5-trifluorophenyl)methanone]: the IC50 on NK3 receptors [1] stood at 183 nM; at NK3 receptors [2], 84.1 nM.

As for `C[C@@H]1c2nnc(-c3nc(N(C)C)ns3)n2CCN1C(=O)c1ccc(F)cc1` [Example 60, (R)-(3-(3-(Dimethylamino)-1,2,4-thiadiazol-5-yl)-8-methyl-5,6-dihydro-[1,2,4]triazolo[4,3-a]pyrazin-7(8H)-yl)(4-fluorophenyl)methanone], the figures for the IC50 on NK3 receptors [1] and on NK3 receptors [2] were 205 nM and 190 nM, respectively.

In the case of `[2H]c1cc(C(=O)N2CCn3c(-c4nc5ccc(F)cc5s4)nnc3[C@H]2C)ccc1F` [Example 61, (R)-(3-(6-Fluorobenzo[d]thiazol-2-yl)-8-methyl-5,6-dihydro-[1,2,4]triazolo[4,3-a]pyrazin-7(8H)-yl)(4-fluorophenyl-3-d)methanone], the values for the IC50 on NK3 receptors [1] and at NK3 receptors [2] were 78.9 nM and 108 nM, respectively.

On to `C[C@@H]1c2nnc(-c3nc4cnc(Cl)cc4s3)n2CCN1C(=O)c1ccc(Cl)cc1` [Example 97, (R)-(4-Chlorophenyl)(3-(6-chlorothiazolo[4,5-c]pyridin-2-yl)-8-methyl-5,6-dihydro-[1,2,4]triazolo[4,3-a]pyrazin-7(8H)-yl)methanone], for which the half-inhibitory concentration (IC50) stood at 156 nM at NK3 receptors [1] and 172 nM at NK3 receptors [2].

Consider `C[C@@H]1c2nnc(-c3nc(Br)ns3)n2CCN1C(=O)c1ccc(F)cc1` [Example 98], for which the IC50 turned out to be 78.4 nM at NK3 receptors [1] and 100 nM on NK3 receptors [2].

Take `[2H]c1cc(C(=O)N2CCn3c(-c4nc5cc(F)c(F)cc5s4)nnc3[C@H]2C)ccc1Cl` [Example 99, (R)-(4-Chlorophenyl-3-d)(3-(5,6-difluorobenzo[d]thiazol-2-yl)-8-methyl-5,6-dihydro-[1,2,4]triazolo[4,3-a]pyrazin-7(8H)-yl)methanone]: the figures for the IC50 on NK3 receptors [1] and on NK3 receptors [2] were 56.2 nM and 23.3 nM, respectively.

Values taken from patent US20230271969A1, “NITROGEN-CONTAINING FUSED RING DERIVATIVE INHIBITOR, PREPARATION METHOD THEREFOR AND USE THEREOF” (Shanghai Hansoh Biomedical Co., Ltd., priority 2020, published 2023).
